Measured values reported in ChEMBL document CHEMBL5113483, “Design and synthesis of NAD(P)H: Quinone oxidoreductase (NQO1)-activated prodrugs of 23-hydroxybetulinic acid with enhanced antitumor properties” (Eur J Med Chem, 2022).

Tests used:
[1] = Selectivity index, ratio of IC50 for antiproliferative activity against human HT-29 cells overexpressing NQO1 in presence of dicoumarol to antiproliferative activity against human HT-29 cells overexpressing NQO1; type: functional
[2] = test system: HT-29; assay: Antiproliferative activity against human HT-29 cells overexpressing NQO1 assessed as inhibition of cell growth preincubated with NQO1 inhibitor, dicoumarol for 30 mins followed by compound addition and measured after 72 hrs by MTT assay; type: functional, cell-based
[3] = test system: A549; assay: Antiproliferative activity against human A549 cells overexpressing NQO1 assessed as inhibition of cell growth incubated for 72 hrs by MTT assay; type: functional, cell-based; conditions: A549, 72 h
[4] = test system: NCI-H596; assay: Antiproliferative activity against NQO1-deficient human NCI-H596 cells assessed as inhibition of cell growth incubated for 72 hrs by MTT assay; type: functional, cell-based; conditions: NCI-H596, 72 h
[5] = Selectivity index, ratio of IC50 for cytotoxicity against human HFL1 cells to IC50 for antiproliferative activity against human HT-29 cells overexpressing NQO1; type: toxicity, cell-based; conditions: HFL1 cells versus HT-29 cells overexpressing NQO1, read-out: Ratio IC50
[6] = test system: HT-29; assay: Antiproliferative activity against human HT-29 cells overexpressing NQO1 assessed as inhibition of cell growth incubated for 72 hrs by MTT assay; type: functional, cell-based; conditions: HT-29, 72 h
[7] = Cytotoxicity against human HFL1 cells assessed as inhibition of cell growth incubated for 72 hrs by MTT assay; type: toxicity, cell-based
[8] = Selectivity index, ratio of IC50 for antiproliferative activity against NQO1-deficient human NCI-H596 cells to IC50 for antiproliferative activity against human HT-29 cells overexpressing NQO1; type: functional
[9] = Toxicity in […] xenografted with human HT-29 cells overexpressing NQO-1 assessed as reduction in body weight at 30 mg/kg, ip administered for 21 days and measured every 2 days; type: organism-based; conditions: in vivo, 504 h, time 21 day
[10] = test system: HT-29; assay: Antitumor activity against human HT-29 cells overexpressing NQO-1 xenografted in ICR mouse assessed as reduction in tumor weight at 30 mg/kg, ip administered every 2 days for 21 days and measured every 2 days relative to control; type: functional; parameters: scale not given: the % may be the effect or the level left
[11] = test system: HT-29; assay: Antitumor activity against human HT-29 cells overexpressing NQO-1 xenografted in ICR mouse assessed as reduction in tumor weight at 30 mg/kg, ip administered every day for 21 days and measured every 2 days relative to control; type: functional; parameters: scale not given: the % may be the effect or the level left; conditions: time 21 day

Row | Structure (SMILES) | Ratio IC50 [1] | IC50 [2] [µM] | IC50 [3] [µM] | IC50 [4] [µM] | selectivity ratio [5] | IC50 [6] [µM] | IC50 at 72 h [7] [µM] | Ratio IC50 [8] | Activity [9] | Activity [10] [%] | Activity [11] [%]
1 | C=C(C)[C@@H]1CC[C@]2(C(=O)NCCNC(=O)CCC(=O)OCc3cn(C)c4c3C(=O)C(OC)=CC4=O)CC[C@]3(C)[C@H](CC[C@@H]4[C@@]5(C)CC[C@H](OC(C)=O)[C@@](C)(COC(C)=O)[C@@H]5CC[C@]43C)[C@@H]12 | 4.2 | 8.02 | 3.1 | 7.89 | 4.1 | 1.92 | 5.78 | 3.01 | – | – | –
2 | C=C(C)[C@@H]1CC[C@]2(C(=O)O)CC[C@]3(C)[C@H](CC[C@@H]4[C@@]5(C)CC[C@H](O)[C@@](C)(COC(=O)CCCC(=O)OCc6cn(C)c7c6C(=O)C(OC)=CC7=O)[C@@H]5CC[C@]43C)[C@@H]12 | – | – | 2.52 | 4.71 | 2.46 | 1.92 | 3.23 | 1.69 | – | – | –
3 | C=C(C)[C@@H]1CC[C@]2(C(=O)O)CC[C@]3(C)[C@H](CC[C@@H]4[C@@]5(C)CC[C@H](OC(=O)CCC(=O)OCc6cn(C)c7c6C(=O)C(OC)=CC7=O)[C@@](C)(COC(C)=O)[C@@H]5CC[C@]43C)[C@@H]12 | – | – | 4.52 | 5.74 | 1.56 | 3.69 | 7.25 | 1.97 | – | – | –
4 | C=C(C)[C@@H]1CC[C@]2(C(=O)OCCOC(=O)CCC(=O)OCc3cn(C)c4c3C(=O)C(OC)=CC4=O)CC[C@]3(C)[C@H](CC[C@@H]4[C@@]5(C)CCC(=O)[C@@](C)(COC(C)=O)[C@@H]5CC[C@]43C)[C@@H]12 | – | – | 3.04 | 5.64 | 1.68 | 3.35 | 6.53 | 1.95 | – | – | –
5 | O=c1[nH]cc(F)c(=O)[nH]1 [FLUOROURACIL] | – | – | – | – | – | – | – | – | Toxic | 65.07 | –
6 | C=C(C)[C@@H]1CC[C@]2(C(=O)OCCOC(=O)CCC(=O)OCc3cn(C)c4c3C(=O)C(OC)=CC4=O)CC[C@]3(C)[C@H](CC[C@@H]4[C@@]5(C)CC[C@H](OC(=O)CCC(=O)N6CCNCC6)[C@@](C)(COC(C)=O)[C@@H]5CC[C@]43C)[C@@H]12 | – | – | 5.45 | 6.39 | 1.99 | 3.29 | 6.79 | 2.12 | – | – | –
7 | C=C(C)[C@@H]1CC[C@]2(C(=O)OCCOC(=O)CCC(=O)OCc3cn(C)c4c3C(=O)C(OC)=CC4=O)CC[C@]3(C)[C@H](CC[C@@H]4[C@@]5(C)CC[C@H](O)[C@@](C)(COC(=O)C6CCNCC6)[C@@H]5CC[C@]43C)[C@@H]12 | – | – | 5.41 | 7.34 | 1.7 | 4.3 | 6.83 | 1.59 | – | – | –
8 | C=C(C)[C@@H]1CC[C@]2(C(=O)N(CCCN(C)C)C(=O)NCC)CC[C@]3(C)[C@H](CC[C@@H]4[C@@]5(C)CC[C@H](O)[C@@](C)(COC(=O)CCC(=O)OCc6cn(C)c7c6C(=O)C(OC)=CC7=O)[C@@H]5CC[C@]43C)[C@@H]12 | – | – | 2.32 | 2.78 | 1.23 | 2.28 | 4.22 | 1.85 | – | – | –
9 | C=C(C)[C@@H]1CC[C@]2(C(=O)OCCOC(=O)CCC(=O)OCc3cn(C)c4c3C(=O)C(OC)=CC4=O)CC[C@]3(C)[C@H](CC[C@@H]4[C@@]5(C)CC[C@H](NC(=O)CCC(=O)N6CCNCC6)[C@@](C)(COC(C)=O)[C@@H]5CC[C@]43C)[C@@H]12 | – | – | 5.17 | 6.44 | 1.77 | 3.63 | 7.11 | 1.96 | – | – | –
10 | C=C(C)[C@@H]1CC[C@]2(C(=O)O)CC[C@]3(C)[C@H](CC[C@@H]4[C@@]5(C)CC[C@H](OC(=O)CCCC(=O)OCc6cn(C)c7c6C(=O)C(OC)=CC7=O)[C@@](C)(COC(C)=O)[C@@H]5CC[C@]43C)[C@@H]12 | – | – | 4.03 | 4.58 | 1.27 | 3.58 | 4.09 | 1.36 | – | – | –
11 | C=C(C)[C@@H]1CC[C@]2(C(=O)O)CC[C@]3(C)[C@H](CC[C@@H]4[C@@]5(C)CC[C@H](O)[C@@](C)(CO)[C@@H]5CC[C@]43C)[C@@H]12 | – | – | 51.4 | 58.1 | 1.06 | 54.8 | 75 | 1.36 | – | – | 56.81
12 | COc1cccc2c1C(=O)c1c(O)c3c(c(O)c1C2=O)C[C@@](O)(C(=O)CO)C[C@@H]3O[C@H]1C[C@H](N)[C@H](O)[C@H](C)O1 [DOXORUBICIN] | – | – | 1.15 | 1.52 | – | 1.13 | – | – | – | – | –
13 | C=C(C)[C@@H]1CC[C@]2(C(=O)N3CCC(N4CCCCC4)CC3)CC[C@]3(C)[C@H](CC[C@@H]4[C@@]5(C)CC[C@H](O)[C@@](C)(COC(=O)CCC(=O)OCc6cn(C)c7c6C(=O)C(OC)=CC7=O)[C@@H]5CC[C@]43C)[C@@H]12 | 4.1 | 7.11 | 2.66 | 6.41 | 3.71 | 1.73 | 6.56 | 3.79 | – | – | –
